Values of other authors in patent US20230346892A1, “TREATMENT OF LONG BONE FRACTURES WITH ABALOPARATIDE” (Radius Health, Inc., priority 2021, published 2023).

Assays:
[1] = tested on: internally fixed femur fractures; settings: rats with internally fixed femur fractures; Lanske et al. 2019

For abaloparatide, the “bone mineral density increases” value (osteoporosis; compared with teriparatide, treating osteoporosis, Sleeman 2019, Miller 2016) is given as “greater bone mineral density increases”, the hypercalcemia (osteoporosis; in vivo) is given as “less hypercalcemia” and the fracture healing [1] is given as “improved fracture healing”.
